Entries after “also recorded” stand apart in the source; their conditions may differ.
How the values were obtained:
[1] = tested on: global splicing in PHF5A WT expressing HCT116 cells; assay: Whole transcriptome RNA-seq differential splicing, PHF5A WT cells; format: cell-based
Method: (§1) Either PHF5A WT or Y36C mutant overexpressing cells were treated with either DMSO or E7107 (100 nM and 10 μM) for 6 hours in quintuplicate before lysed in TRIzol reagent (Thermo Fisher). After phase separation, top aqueous phase was further processed using MagMAX™-96 Total RNA Isolation Kit (Thermo Fisher, AM1830) for RNA extraction. RNA quality was assessed using Agilent tapestation with RNA screen tape. RNA-seq libraries were prepared by Beijing Genomic Institute (BGI) and sequenced on Illumina Hiseq 4000 for 6G clean reads per sample. RNA-seq reads were aligned to hg19 by STAR (Dobin et al., Bioinformatics 29, 15-21 (2013)) and raw junction counts generated by STAR were used for calculating percent spliced in (PSI) to quantify splice junction usage relative to all other splice junctions that share the same splice site as described before (Darman et al., Cell reports 13, 1033-45 (2015)). Differential PSI were assessed between a pair of sample groups using moderated t-test defined in limma package (Smyth, Statistical applications in genetics and molecular biology 3, Article3 (2004)) in Bioconductor. The statistical p-values were corrected using the Benjamini-Hochberg procedure and q-values less than or equal to 0.05 were considered statistically significant. Gene IDs associated with significant splicing changes upon E7107 treatment as compared to DMSO in either PHF5A WT or Y36C cells were used for generation of the Venn Diagram using online tool (http://bioinformatics.psb.ugent.be/webtools/Venn/). PHF5A WT or Y36C specific genes identified from the Venn Diagram analysis were then subject to Gene Set Enrichment Analysis (GSEA) (http://software.broadinstitute.org/gsea/msigdb/annotate.jsp) using the Kyoto Encyclopedia of Genes and Genomes (KEGG) pathway database.
The number of reads which cover the splice junction which excludes a given cassette exon (exon skipping reads) were compared with both the number of spliced reads which share its 3′ splice site yet have an alternative 5′ splice site bordering the cassette exon (exon inclusion reads) and the number of reads which cross the exon-intron boundary at that same 3′ splice site (intron retention reads.) These counts were summed and their fractions from the percent spliced in (PSI) for the exon skipping event, the exon inclusion event, and the intron retention event, respectively, at that locus. The PSI for all significant exon skipping events derived from the comparison between 100 nM E7107 treatment in PHF5A Y36C cells and the respective DMSO controls (3883 events) and the PSI for the intron retention junction at the same locus were plotted. For all other treatments, the PSI of the exon skipping junction and the intron retention junction for each locus were plotted in the same order. PSI is averaged over samples in quintuplicate.

[2] = tested on: HCT116 cells; assay: CellTiter-Glo growth inhibition, parental HCT116; format: cell-based; details: in HCT116
Method: Parental HCT116 cells were obtained from ATCC and cultured in RPMI 1640 medium (Thermo Fisher, GIBCO #11875) supplemented with 10% FBS. Parental Panc0504 cells were obtained from ATCC and cultured in GIBCO RPMI 1640 medium (Thermo Fisher, GIBCO #11875) supplemented with glucose (to 4.5 g/L final), HEPES (10 mM final), sodium pyruvate (1 mM final), human insulin (10 μg/ml final) and 15% FBS. Cell line authentication was achieved by genetic profiling using polymorphic short tandem repeat (STR) loci (ATCC). All cell lines were free of mycoplasma contamination. Lenti-X-293T cells (Clontech Laboratories, Inc. Cat #632180), a cell line for lentiviral packaging, was maintained in Dulbecco's modified Eagle's medium (Thermo Fisher, GIBCO #11965) containing 10% fetal bovine serum and 4 mM L-glutamine. WT PHF5A cDNA was obtained from Genecopoeia and cloned into a pDONR 221 vector (Thermo Fisher). Sequence verified positive clones were cloned into pLenti6.3N5 vector (Thermo Fisher) through LR recombination. Mutagenesis of Y36 and V37 were carried using Agilent Quickchange II kit following manufacturer's recommendation using the PHF5A WT plasmid. All primers used for mutagenesis were designed used the QuikChange Primer Design tool by Agilent. Verified positive clones of PHF5A Y36 or V37 variants were used for lentivirus production using X293T cells. Parental HCT116 cells and Panc0504 cells were then infected with virus containing medium and selected with Blasticidin S (Thermo Fisher) at 10 μg/ml for one week. Engineered cell lines were maintained in the same medium without antibiotics. The following primary antibodies were used at 1:1000 dilution for western blot analysis in LI-COR buffer (LI-COR): α-SF3B1 mouse monoclonal antibody (MBL, D221-3), α-SF3B3 rabbit polyclonal antibody (Protein Tech, 14577-1-AP), α-SF3B4 goat polyclonal antibody (Santa Cruz, 14276), α-SF3B6/p14 rabbit polyclonal antibody (Protein Tech, 12379-1-AP), α-PHF5A rabbit polyclonal antibody (Protein Tech, 15554-1-AP). α-GAPDH rabbit polyclonal antibody (Sigma, G9545) was used at 1:10,000. […]
(§2) For CellTiter-Glo analysis, 500 cells were seeded in each well of a 384-well plate the day before compound addition. […] 72 hours post compound addition; CellTiter-Glo reagent was added to the medium, incubated and assayed on EnVision Multilabel Reader (PerkinElmer). The luminescence value from each treatment sample was normalized to the average value of the respective DMSO control. […] For heatmap summarization of IC50 shifts, IC50 value were extracted from dosage response curves and the fold changes of IC50 values in PHF5A variants expressing lines over that of the WT lines were calculated and plotted using TIBCO Spotfire software. […]

[3] = tested on: MCL1 splicing (ES/IR events) in PHF5A WT expressing HCT116 cells; assay: Taqman gene expression analysis of MCL1 isoforms, PHF5A WT cells; format: cell-based; details: 4 hour treatment
Method: (§3) 8000 cells of indicated genotypes were seeded in each well of 96-well plate and allowed to settle overnight. On the second day, 11 points serial dilution (1:4 fold dilution across) of indicated compound with a top dosage of 10 μM final was added to the culturing medium. 4 hour post compound addition, culturing medium was decanted and washed once with PBS. PBS was then decanted completely from the plate and Lysis buffer (plus DNase I) from TaqMan Gene Expression Cells-to-CT Kit (Thermo Fisher, cat # AM1729) was added according to the manual. After 5 mins incubation at room temperature on the shaker, stop solution was added to each well and incubated for 2 min. Reverse transcription was set up immediately using the Cells-to-CT Kit and cDNAs were used for quantitative real time PCR analysis using Viia7 (Thermo Fisher). Each reaction is multiplexed with a FAM labelled probe targeting specific target gene splicing isoforms and a VIC labelled probe targeted 18S rRNA as loading control. Therefore, the FAM Ct value in each well was first normalized to the VIC Ct value in the same well before further normalization to the FAM/VIC ratio of DMSO treated control samples to calculate fold change over DMSO. Graphs were generated using Graphpad Prism 6, n=2. Taqman gene expression probes used in these assays are: […]

[4] = tested on: PHF5A Y36C over-expressing PANC0504 cells; assay: Growth inhibition in PANC0504 cells over-expressing PHF5A Y36C; format: cell-based
Method: Parental HCT116 cells were obtained from ATCC and cultured in RPMI 1640 medium (Thermo Fisher, GIBCO #11875) supplemented with 10% FBS. Parental Panc0504 cells were obtained from ATCC and cultured in GIBCO RPMI 1640 medium (Thermo Fisher, GIBCO #11875) supplemented with glucose (to 4.5 g/L final), HEPES (10 mM final), sodium pyruvate (1 mM final), human insulin (10 μg/ml final) and 15% FBS. Cell line authentication was achieved by genetic profiling using polymorphic short tandem repeat (STR) loci (ATCC). All cell lines were free of mycoplasma contamination. […]
as §2

[5] = tested on: HCT116 resistant clones carrying SF3B1 (R1074H, V1078A/I) or PHF5A Y36C mutations; assay: CellTiter-Glo growth inhibition profiling of E7107/herboxidiene resistant HCT116 clones; format: cell-based; details: 72 hour CellTiter-Glo, HCT116 resistant clones vs parental
Method: 2.5 million HCT116 cells were seeded in each 10 cm dish and treated with indicated dosages of splicing modulators for 2 weeks. Compounds were refreshed every 4 days. When needed, confluent dishes were split 1:3 and cells were allowed to recover overnight without splicing modulator treatment after re-seeding. At the end of the compound selection period, surviving individual clones were picked and transferred to 12-well plates. Individual resistant clones were further expanded without splicing modulator treatment and 1 million cells from each clone were pelleted for genomic DNA extraction using the DNeasy Blood & Tissue Kit from Qiagen. Whole exome sequencing (WXS) libraries were generated by Novogene Corporation using Agilent SureSelect Human All Exon V6 kit and sequenced on Illumina HiSeq platform. 12G raw data were gathered for each sample. WXS reads were then aligned to hg19 by BWA-MEM (Shi et al., Nature biotechnology 33, 661-7 (2015)) and somatic mutations were identified with MuTect2 (Schenone et al., Nature chemical biology 9, 232-40 (2013)) through Sentieon pipeline (Wacker et al., Nature chemical biology 8, 235-7 (2012)) by pairing resistant clone with parental cell lines. As the resistant clones for WXS were selected, the allele frequencies for the mutations which are responsible for the resistance should be high. Non-silent mutations (among the H3 curated spliceosome genes) with allele frequency higher than 0.2 were focused on.
For CellTiter-Glo analysis, 500 cells were seeded in each well of a 384-well plate the day before compound addition. An 11 part serial dilution was used starting with a top final dosage of 10 μM for ten additional doses. DMSO percentage was maintained throughout and a DMSO only control was included. 72 hours post compound addition; CellTiter-Glo reagent was added to the medium, incubated and assayed on EnVision Multilabel Reader (PerkinElmer). The luminescence value from each treatment sample was normalized to the average value of the respective DMSO control. The dosage response curve plots were generated using Graphpad Prism 6 and fit using nonlinear regression analysis and the log (inhibitor) vs. response—Variable slope (four parameters). For heatmap summarization of IC50 shifts, IC50 value were extracted from dosage response curves and the fold changes of IC50 values in PHF5A variants expressing lines over that of the WT lines were calculated and plotted using TIBCO Spotfire software. For IC50s greater than the top dosage, the values were arbitrarily set at 10 μM. Unsupervised clustering analysis was performed in TIBCO Spotfire using the following default parameters: Clustering method: UPGMA; Distance measure: Euclidean; Ordering weight: Average value; Normalization: (None); Empty value replacement: Constant value: 0.

[6] = tested on: MCL1 splicing (ES/IR events) in PHF5A Y36C expressing HCT116 cells; assay: Taqman gene expression analysis of MCL1 isoforms, PHF5A Y36C cells; format: cell-based; details: PHF5A-Y36C cells compared to WT, increasing dosage
Method: as §3

[7] = tested on: global splicing in PHF5A Y36C expressing HCT116 cells; assay: Whole transcriptome RNA-seq differential splicing, PHF5A Y36C cells; format: cell-based
Method: as §1, with “Gene IDs associated with significant splicing changes upon E7107 treatment as compared to DMSO in either PHF5A WT or Y36C cells were used for generation of the Venn Diagram using online tool (http://bioinformatics.psb.ugent.be/webtools/Venn/). PHF5A WT or Y36C specific genes identified from the Venn Diagram analysis were then subject to Gene Set Enrichment Analysis (GSEA) (http://software.broadinstitute.org/gsea/msigdb/annotate.jsp) using the Kyoto Encyclopedia of Genes and Genomes (KEGG) pathway database.” left out

[8] = target: T1, SF3B1 R1074H (Homo sapiens, UniProt O75533+Q7RTV0, R1074H); details: Yokoi et al. 2011; cited from earlier work
T1 construct: endogenous in cells; WiDr clones in the cited Yokoi et al. work

Compound	GI50 ([2]; Homo sapiens, HCT-116) [nM]	dose-dependent induction of MCL1 ES and IR events [3]	resistant phenotype upon PHF5A Y36C over-expression [4]	resistance conferred by mutations in resistant clones (growth inhibition profiling) [5]	also measured
CC[C@H](O)[C@@H](C)[C@H]1O[C@@H]1C[C@@](C)(O)/C=C/C=C(\C)C1OC(=O)C[C@H](O)CC[C@@](C)(O)[C@@H](OC(=O)N2CCN(C3CCCCCC3)CC2)/C=C/[C@@H]1C (stereo partly drawn) [Compound E7107]	1.5	“earlier” induction of MCL1 ES events than IR events at lower doses	partial resistant phenotype	SF3B1-R1074H mutation conferred the most robust resistance	number of introns with induced aberrant splicing ([1]; E7107, FIG. 4A): approximately 20,000; number of the 3883 Y36C related ES junctions showing reduced ES PSI and increased IR PSI in WT cells ([1]; E7107 treated WT vs Y36C cells): 2470; share of Y36C related ES junctions showing reduced ES PSI and increased IR PSI in WT cells ([1]; E7107 treated WT vs Y36C cells): ~64%; differential splicing events vs DMSO ([1]; PHF5A WT cells, 100 nM E7107): intron-retention (IR) events were predominant; MCL1 isoform events in RNA-seq sashimi plots ([1]; PHF5A WT cells, E7107 treatment): IR was the dominant event observed; MCL1-S production (ES events) [6]: enhanced to a higher level; differential splicing events vs DMSO ([7]; 100 nM E7107): the overall amount of IR events and their average fold change were greatly reduced; also recorded: the number of compound induced exon-skipping (ES) events was increased; MCL1 isoform events in RNA-seq sashimi plots ([7]; E7107 treatment): mainly ES events were observed yielding the MCL1-S form; effect of SF3B1 R1074H substitution on compound activity [8]: almost completely abolishes the splicing-modulating and anti-proliferative effects
CC(C)C[C@H](NC(=O)[C@H](Cc1ccccc1)NC(=O)c1cnccn1)B(O)O [bortezomib]			not	did not affect the cell lines sensitivity	
CO[C@H]([C@@H](C)[C@H]1O[C@]1(C)C[C@H](C)/C=C/C=C(\C)[C@H]1O[C@@H](CC(=O)O)CC[C@@H]1C)[C@@H](C)O [herboxidiene]	7.6	even more pronounced effect		PHF5A-Y36C mutation rendered more resistance	
CO[C@]1(C)C[C@@]2(CO2)[C@H](O)[C@@H](/C=C/C(C)=C/C[C@@H]2O[C@H](C)[C@H](NC(=O)/C=C\[C@H](C)OC(C)=O)C[C@@H]2C)O1 [spliceostatin A]				SF3B1-R1074H mutation also conferred better resistance; also recorded: show resistance to the Y36C clone	GI50 [2]: 0.76 nM
CNC(=O)O[C@@H](C)/C=C\C(=O)N[C@H]1CC[C@@H](C/C=C(C)/C=C/[C@@H]2C[C@]3(CO3)CC(C)(C)O2)CC1 [sudemycin D6]	149	IR events were not observed		SF3B1-R1074H mutation also conferred better resistance	
sudemycin D6				show resistance to the Y36C clone	

— US20200190593A1, “SPLICEOSOME MUTATIONS AND USES THEREOF” (EISAI R&D MANAGEMENT CO., LTD., priority 2017, published 2020)
